Calls of active or inactive are those of the source. No rule for the calls is given here.
Test system: rodent carcinogenicity bioassays, tumor incidence
Assay: CCRIS carcinogenicity studies
Procedure, shortened: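 Archive of carcinogenicity, mutagenicity, tumor promotion and tumor inhibition results drawn from journals, NCI reports and other sources, expert-reviewed; covers 1985-2011 and is no longer updated.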

CC(C)(c1ccc(OCC2CO2)cc1)c1ccc(OCC2CO2)cc1 (stereo not drawn)
carcinogen call (Species: MOUSE, Strain/Sex: CF1/FEMALE, Route: DERMAL, Dose: 0, 1, 10% IN ACETONE 2D/WK FOR 2 YR (STUDY DURATION: 2 YR), Dose: 0, 1, 10% IN ACETONE 2D/WK FOR 2 YR (STUDY DURATION: 2 YR)): inactive; negative
carcinogen call (Species: MOUSE, Strain/Sex: CF1/MALE, Route: DERMAL, Dose: 0, 1, 10% IN ACETONE 2D/WK FOR 2 YR (STUDY DURATION: 2 YR), Dose: 0, 1, 10% IN ACETONE 2D/WK FOR 2 YR (STUDY DURATION: 2 YR)): inactive; negative
carcinogen call (Species: MOUSE, Strain/Sex: CF-1/FEMALE, Route: DERMAL, Dose: 0, 1, 10% IN ACETONE (TOTAL DOSE 0.2 ML) 2/WK APPLIED TO DORSAL SKIN FOR DURATION OF STUDY (STUDY DURATION: 2 YR), Dose: 0, 1, 10% IN ACETONE (TOTAL DOSE 0.2 ML) 2/WK APPLIED TO DORSAL SKIN FOR DURATION OF STUDY (STUDY DURATION: 2 YR)): inactive; negative
carcinogen call (Species: MOUSE, Strain/Sex: CF-1/MALE, Route: DERMAL, Dose: 0, 1, 10% IN ACETONE (TOTAL DOSE 0.2 ML) 2/WK APPLIED TO DORSAL SKIN FOR DURATION OF STUDY (STUDY DURATION: 2 YR), Dose: 0, 1, 10% IN ACETONE (TOTAL DOSE 0.2 ML) 2/WK APPLIED TO DORSAL SKIN FOR DURATION OF STUDY (STUDY DURATION: 2 YR)): inactive; negative

O=C1c2ccccc2C(=O)c2c(O)cccc21
carcinogen call (Species: RAT, Strain/Sex: ACI/N/MALE, Route: ORAL, Dose: 0, 1% IN BASAL DIET FOR DURATION OF STUDY (STUDY DURATION: 480 D), Tumor Site: Type of Lesion: CECUM: ADENOMA, ADENOCARCINOMA, COLON: ADENOMA, ADENOCARCINOMA, LIVER: TUMOR, STOMACH: TUMOR, Tumor Site: Type of Lesion: CECUM: ADENOMA, ADENOCARCINOMA, COLON: ADENOMA, ADENOCARCINOMA, LIVER: TUMOR, STOMACH: TUMOR): active; positive

O=C1OC2(c3ccc(O)cc3Oc3cc(O)ccc32)c2ccccc21
carcinogen call (Species: MOUSE, Strain/Sex: SWISS-WEBSTER/FEMALE, Route: DERMAL, Dose: 0, 1% IN 0.1 ML 0.1% SODIUM LAURYL SULFATE 1/WK FOR 18 MO (STUDY DURATION: 18 MO)): inactive; negative
carcinogen call (Species: MOUSE, Strain/Sex: SWISS-WEBSTER/MALE, Route: DERMAL, Dose: 0, 1% IN 0.1 ML 0.1% SODIUM LAURYL SULFATE 1/WK FOR 18 MO (STUDY DURATION: 18 MO)): inactive; negative

CCS(=O)(=O)c1ccc(S(N)(=O)=O)c2ccccc12
carcinogen call (Species: MOUSE, Strain/Sex: A X 1F/FEMALE, Route: ORAL, Dose: 0, 0.01% IN POWDERED OXOID DIET (STUDY DURATION: 333-701 D), Tumor Site: Type of Lesion: BLADDER: CARCINOMA, LUNG: ADENOMA): active; positive
carcinogen call (Species: MOUSE, Strain/Sex: A X 1F/FEMALE, Route: ORAL, Dose: 0, 0.01% IN POWDERED OXOID DIET PRECEDED BY IRRADIATION OF 1000 RAD WITH UPPER BODY SHIELDED 48H PRIOR TO DOSING (STUDY, Tumor Site: Type of Lesion: BLADDER: CARCINOMA, LUNG: ADENOMA): active; positive

Nc1cccc2c(N)cccc12
carcinogen call (Species: MOUSE, Strain/Sex: B6C3F1/FEMALE, Route: ORAL, Dose: 0, 0.1, 0.2% IN DIET FOR 103 WK (STUDY DURATION: 105-109 WK), Dose: 0, 0.1, 0.2% IN DIET FOR 103 WK (STUDY DURATION: 105-109 WK), Tumor Site: Type of Lesion: LUNG: ALVEOLAR/BRONCHIOLAR ADENOMA OR CARCINOMA, LIVER: HEPATOCELLULAR CARCINOMA, HEPATOCELLULAR ADENOMA OR CARCINOMA, T, Tumor Site: Type of Lesion: LUNG: ALVEOLAR/BRONCHIOLAR ADENOMA OR CARCINOMA, LIVER: HEPATOCELLULAR CARCINOMA, HEPATOCELLULAR ADENOMA OR CARCINOMA, T): active; positive
carcinogen call (Species: MOUSE, Strain/Sex: B6C3F1/MALE, Route: ORAL, Dose: 0, 0.1, 0.2% IN DIET FOR 103 WK (STUDY DURATION: 105-109 WK), Dose: 0, 0.1, 0.2% IN DIET FOR 103 WK (STUDY DURATION: 105-109 WK), Tumor Site: Type of Lesion: THYROID GLAND: PAPILLARY ADENOMA OR FOLLICULAR CELL ADENOMA OR PAPILLARY CYSTADENOMA (NOS)): active; positive
carcinogen call (Species: RAT, Strain/Sex: F344/FEMALE, Route: ORAL, Dose: 0, 0.05, 0.1% IN DIET FOR 103 WK (STUDY DURATION: 106-110 WK), Dose: 0, 0.05, 0.1% IN DIET FOR 103 WK (STUDY DURATION: 106-110 WK), Tumor Site: Type of Lesion: CLITORAL GLAND: ADENOMA (NOS) OR CARCINOMA (NOS), UTERUS: ENDOMETRIAL STROMAL POLYP): active; positive
carcinogen call (Species: RAT, Strain/Sex: F344/MALE, Route: ORAL, Dose: 0, 0.05, 0.1% IN DIET FOR 103 WK (STUDY DURATION: 106-109 WK), Dose: 0, 0.05, 0.1% IN DIET FOR 103 WK (STUDY DURATION: 106-109 WK)): inactive; negative

Cc1c[nH]c(=O)[nH]c1=O
carcinogen call (Species: RAT, Strain/Sex: F344/MALE, Route: ORAL, Dose: 0, 1, 3% IN DIET FOR 36 WK (STUDY DURATION: 40 WK), Dose: 0, 1, 3% IN DIET FOR 36 WK (STUDY DURATION: 40 WK), Tumor Site: Type of Lesion: BLADDER: PAPILLOMA, CARCINOMA): active; positive

CC(=O)OC1CC(C)OC(C)O1 (stereo not drawn)
carcinogen call (Species: MOUSE, Strain/Sex: B6C3F1/FEMALE, Route: GAVAGE, Dose: 0, 250, 500 MG/KG IN CORN OIL 5 D/WK FOR 103 WK (STUDY DURATION: 105 WK), Dose: 0, 250, 500 MG/KG IN CORN OIL 5 D/WK FOR 103 WK (STUDY DURATION: 105 WK)): inactive; negative
carcinogen call (Species: MOUSE, Strain/Sex: B6C3F1/MALE, Route: GAVAGE, Dose: 0, 250, 500 MG/KG IN CORN OIL 5 D/WK FOR 103 WK (STUDY DURATION: 105 WK), Dose: 0, 250, 500 MG/KG IN CORN OIL 5 D/WK FOR 103 WK (STUDY DURATION: 105 WK), Tumor Site: Type of Lesion: FORESTOMACH: SQUAMOUS PAPILLOMA OR SQUAMOUS CELL CARCINOMA): equivocal
carcinogen call (Species: RAT, Route: ORAL, Tumor Site: Type of Lesion: LIVER): active; positive
carcinogen call (Species: RAT, Strain/Sex: F344/FEMALE, Route: GAVAGE, Dose: 0, 125, 250 MG/KG IN CORN OIL 5 D/WK FOR 103 WK (STUDY DURATION: 105 WK), Dose: 0, 125, 250 MG/KG IN CORN OIL 5 D/WK FOR 103 WK (STUDY DURATION: 105 WK)): inactive; negative
carcinogen call (Species: RAT, Strain/Sex: F344/MALE, Route: GAVAGE, Dose: 0, 62.5, 125 MG/KG IN CORN OIL 5 D/WK FOR 103 WK (STUDY DURATION: 105 WK), Dose: 0, 62.5, 125 MG/KG IN CORN OIL 5 D/WK FOR 103 WK (STUDY DURATION: 105 WK)): inactive; negative

NC1=NCN([C@@H]2O[C@H](CO)[C@@H](O)[C@H]2O)C(=O)N1
carcinogen call (Species: RAT, Strain/Sex: F344/MALE, Route: INTRAPERITONEAL, Dose: 0, 50 MG/KG IN 0.9% SALINE 3/WK FOR 1 YR (STUDY DURATION: 1 YR)): inactive; negative

c1ccc2c(c1)ccc1c2ccc2c3ccccc3ccc21
carcinogen call (Species: MOUSE, Strain/Sex: NMRI/FEMALE, Route: DERMAL, Dose: 0, 136, 448, 1358 NMOL (TOTAL DOSE) APPLIED AS 1 DROP OF ACETONE SOLUTION 3/WK FOR DURATION OF STUDY (STUDY DURATION: 11, Dose: 0, 136, 448, 1358 NMOL (TOTAL DOSE) APPLIED AS 1 DROP OF ACETONE SOLUTION 3/WK FOR DURATION OF STUDY (STUDY DURATION: 11, Tumor Site: Type of Lesion: SKIN: PAPILLOMA): active; positive
carcinogen call (Species: MOUSE, Strain/Sex: NMRI/FEMALE, Route: SUBCUTANEOUS, Dose: 0, 36, 40, 108, 308, 399 NMOL IN TRICAPRYLIN ONCE (STUDY DURATION: 112 WK), Dose: 0, 36, 40, 108, 308, 399 NMOL IN TRICAPRYLIN ONCE (STUDY DURATION: 112 WK), Tumor Site: Type of Lesion: INJECTION SITE: FIBROSARCOMA): active; positive
carcinogen call (Species: MOUSE, Strain/Sex: NMRI/FEMALE, Route: SUBCUTANEOUS, Dose: 0, 40, 400 NMOL IN 0.05 ML OF AN AQUEOUS SOLUTION CONTAINING 1% (W/W) GELATIN 0.9% (W/W) SODIUM CHLORIDE AND 0.4% (W/W), Dose: 0, 40, 400 NMOL IN 0.05 ML OF AN AQUEOUS SOLUTION CONTAINING 1% (W/W) GELATIN 0.9% (W/W) SODIUM CHLORIDE AND 0.4% (W/W), Tumor Site: Type of Lesion: LUNG: ADENOMA): active; positive
